Read-outs that look alike come from different tables or passages of the source.
Legend:
NCI-H1373 cells = experiment: Cell proliferation inhibition assay (CTG method); type: cell-based, human; conditions: NCI-H1373 cells, 6 days incubation, CTG method, read-out: IC50 (nM) for NCI-H1373 cell viability
PARP7 = biological target: T1, PARP7 (Homo sapiens, UniProt Q7Z3E1); experiment: Test of inhibitory activity against PARP7 enzyme (PARP7 FLAG-tag, Probe A, time-resolved fluorescence); type: biochemical; conditions: PARP7 12 nM, Probe A 2 nM, 1 hr room temperature
T1 construct: purchased BPS 80527
T1 sequence (Q7Z3E1 1-657): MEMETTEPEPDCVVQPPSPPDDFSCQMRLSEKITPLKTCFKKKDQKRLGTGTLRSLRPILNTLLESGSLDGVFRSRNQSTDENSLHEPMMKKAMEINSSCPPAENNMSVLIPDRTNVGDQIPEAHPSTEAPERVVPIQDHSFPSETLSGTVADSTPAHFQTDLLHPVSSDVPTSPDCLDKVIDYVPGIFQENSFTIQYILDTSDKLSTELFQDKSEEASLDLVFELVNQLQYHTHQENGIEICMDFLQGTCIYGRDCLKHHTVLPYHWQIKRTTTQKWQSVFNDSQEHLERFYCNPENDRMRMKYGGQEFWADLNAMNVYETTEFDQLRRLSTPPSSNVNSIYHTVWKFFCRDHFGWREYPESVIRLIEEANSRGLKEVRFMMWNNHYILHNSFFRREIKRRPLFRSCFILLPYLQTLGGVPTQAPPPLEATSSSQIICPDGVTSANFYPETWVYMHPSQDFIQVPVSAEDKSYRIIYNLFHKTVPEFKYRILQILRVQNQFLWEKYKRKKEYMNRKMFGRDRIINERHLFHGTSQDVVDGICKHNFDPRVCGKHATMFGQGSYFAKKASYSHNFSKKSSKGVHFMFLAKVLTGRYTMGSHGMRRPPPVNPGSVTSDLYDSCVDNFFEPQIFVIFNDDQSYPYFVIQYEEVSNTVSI

tumor = conditions: preclinical experimental data; cited from earlier work

SMILES	IC50 (NCI-H1373 cells; Homo sapiens, NCI-H1373, 144 h)	IC50 (PARP7)	IC50 (NCI-H1373 cells)	anti-tumor growth effect (tumor)	tumor-specific adaptive immune memory (tumor)
C[C@@H](COCCC(=O)N1CCN2c3ncc(C(F)(F)F)cc3N(CCO)C(=O)[C@@H]2C1)Nc1cn[nH]c(=O)c1C(F)(F)F [Compound 41, (S)-5-(2-hydroxyethyl)-8-(3-((S)-2-((6-oxo-5-(trifluoromethyl)-1,6-dihydropyridazin-4-yl)amino)propoxy)propionyl)-3-(trifluoromethyl)-7,8,9,10-tetrahydro-5H-pyrazino[1,2-a]pyrido[3,2-e]pyrazino-6(6aH)-one]	500 to 5000 nM	< 10 nM			
C[C@@H](COCCC(=O)N1CCN2c3ncc(C(F)(F)F)cc3C(=O)N(C)C[C@H]2C1)Nc1cn[nH]c(=O)c1C(F)(F)F [Compound 42, (S)-6-methyl-9-(3-((S)-2-((6-oxo-5-(trifluoromethyl)-1,6-dihydropyridazin-4-yl)amino)propoxy)propionyl)-3-(trifluoromethyl)-7,7a, 8,9,10,11-hexahydropyrazino[1,2-a]pyrido[3,2-f][1,4]diazepan-5(6H)-one]	500 to 5000 nM	< 10 nM			
C[C@@H](COCCC(=O)N1CCN2c3ncc(C(F)(F)F)cc3N(C)CCC2C1)Nc1cn[nH]c(=O)c1C(F)(F)F (stereo partly drawn) [Compound 43, 5-((((2S)-1-(3-(5-methyl-3-(trifluoromethyl))-6,7,7a, 8,10,11-hexahydropyrazino[1,2-d]pyrido[3,2-b] [1,4]diazepine-9(5H)-yl)-3-oxopropoxy)prop-2-yl)amino)-4-(trifluoromethyl)pyridazin-3(2H)-one]	100 to 500 nM	< 10 nM			
C[C@@H](COCCC(=O)N1CCN2c3ncc(C(F)(F)F)nc3OCC[C@H]2C1)Nc1cn[nH]c(=O)c1C(F)(F)F [Compound 47, 5-(((S)-1-(3-oxo-3-((S)-3-(trifluoromethyl)-6,7,7a, 8, 10, 11-hexahydro-9H-bipyrazino[2,3-b:1′, 2′-d][1, 4]oxazepane-9-yl)propoxy)prop-2-yl)amino)-4-(trifluoromethyl)pyridazin-3(2H)-one]	< 100 nM	< 10 nM			
C[C@@H](COCCC(=O)N1CCN2c3ncc(C(F)(F)F)nc3N(C)C(=O)[C@H]2C1)Nc1cn[nH]c(=O)c1C(F)(F)F [Compound 48, (R)-5-methyl-8-(3-((S)-2-((6-oxo-5-(trifluoromethyl)-1,6-dihydropyridazin-4-yl)amino)propoxy)propionyl)-3-(trifluoromethyl)-7,8,9, 10-tetrahydro-5H-bipyrazino[1,2-a:2′, 3′-e]pyrazin-6(6aH)-one]	< 100 nM	< 10 nM			
C[C@@H](COCCC(=O)N1CCN2c3ncc(C(F)(F)F)c(C#N)c3OC[C@H]2C1)Nc1cn[nH]c(=O)c1C(F)(F)F [Compound 51, (R)-8-(3-((S)-2-((6-oxo-5-(trifluoromethyl)-1,6-dihydropyridazin-4-yl)amino)propoxy)propionyl)-3-(trifluoromethyl)-6,6a, 7,8,9, 10-hexahydropyrazino[1,2-d]pyrido[3,2-b][1, 4]oxazinane-4-carbonitrile]	100 to 500 nM	< 10 nM			
Cc1c(C(F)(F)F)cnc2c1OC[C@H]1CN(C(=O)CCOC[C@H](C)Nc3cn[nH]c(=O)c3C(F)(F)F)CCN21 [Compound 52, 5-(((S)-1-(3-((R)-4-methyl-3-(trifluoromethyl)-6a, 7,9, 10-tetrahydropyrazino[1,2-d]pyrido[3,2-b][1, 4]oxazinane-8(6H)-yl)-3-oxopropoxy)prop-2-yl)amino)-4-(trifluoromethyl)pyridazin-3(2H)-one]	< 100 nM	< 10 nM			
C[C@@H](COCCC(=O)N1CCN2c3ncc(C#N)cc3N(C)C(=O)[C@@H]2C1)Nc1cn[nH]c(=O)c1C(F)(F)F [Compound 53]	100 to 500 nM	< 10 nM			
C[C@@H](COCCC(=O)N1CCN2c3ncc(C(F)(F)F)nc3N(C)C(=O)[C@@H]2C1)Nc1cn[nH]c(=O)c1C(F)(F)F [Compound 58, (S)-5-methyl-8-(3-((S)-2-((6-oxo-5-(trifluoromethyl)-1,6-dihydropyridazin-4-yl)amino)propoxy)propionyl)-3-(trifluoromethyl)-7,8,9, 10-tetrahydro-5H-bipyrazino[1,2-a:2′, 3′-e]pyrazin-6(6aH)-one]	< 100 nM	< 10 nM			
C[C@@H](COCCC(=O)N1CCN2c3ncc(C(F)(F)F)cc3C=C[C@H]2C1)Nc1cn[nH]c(=O)c1C(F)(F)F [Compound 60]		< 10 nM	< 100 nM		
C[C@@H](COC[C@@H](F)C(=O)N1CCN2c3ncc(C(F)(F)F)cc3N(C)C(=O)[C@@H]2C1)Nc1cn[nH]c(=O)c1C(F)(F)F [Compound 65, (S)-8-((R)-2-fluoro-3-((S)-2-((6-oxo-5-(trifluoromethyl)-1,6-dihydropyridazin-4-yl)amino)propoxy)propionyl)-5-methyl-3-(trifluoromethyl)-7,8,9, 10-tetrahydro-5H-pyrazino[1,2-a]pyrido[3,2-e]pyrazin-6(6aH)-one]	< 100 nM	< 10 nM			
C[C@@H](COC[C@H](F)C(=O)N1CCN2c3ncc(C(F)(F)F)cc3N(C)C(=O)[C@@H]2C1)Nc1cn[nH]c(=O)c1C(F)(F)F [Compound 66, (S)-8-((S)-2-fluoro-3-((S)-2-((6-oxo-5-(trifluoromethyl)-1,6-dihydropyridazin-4-yl)amino)propoxy)propionyl)-5-methyl-3-(trifluoromethyl)-7,8,9, 10-tetrahydro-5H-pyrazino[1,2-a]pyrido[3,2-e]pyrazin-6(6aH)-one]	500 to 5000 nM	< 10 nM			
C[C@@H](COC[C@H](O)C(=O)N1CCN2c3ncc(C(F)(F)F)cc3C=C[C@@H]2C1)Nc1cn[nH]c(=O)c1C(F)(F)F [Compound 71]	< 100 nM	< 10 nM			
C[C@@H](COC[C@@H](O)C(=O)N1CCN2c3ncc(C(F)(F)F)cc3C=C[C@@H]2C1)Nc1cn[nH]c(=O)c1C(F)(F)F [Compound 72]	< 100 nM	< 10 nM			
C[C@@H](COC[C@@H](F)C(=O)N1CCN2c3ncc(C(F)(F)F)cc3C=C[C@@H]2C1)Nc1cn[nH]c(=O)c1C(F)(F)F [Compound 73]	< 100 nM	< 10 nM			
C[C@@H](COC[C@H](F)C(=O)N1CCN2c3ncc(C(F)(F)F)cc3C=C[C@@H]2C1)Nc1cn[nH]c(=O)c1C(F)(F)F [Compound 74]	< 100 nM	< 10 nM			
C[C@@H](COCCC(=O)N1CCN2c3nc(N)c(C(F)(F)F)cc3COC[C@H]2C1)Nc1cn[nH]c(=O)c1C(F)(F)F [Compound 77, 5-(((S)-1-(3-((R)-2-amino-3-(trifluoromethyl)-7a, 8, 10, 11-tetrahydro-5H-pyrazino[2,1-c]pyrido[2,3-e][1, 4]oxazepane-9(7H)-yl)-3-oxypropoxy)prop-2-yl)amino)-4-(trifluoromethyl)pyridazin-3(2H)-one]	> 5000 nM	< 10 nM			
C[C@@H](COCCC(=O)N1CCN2c3ncc(C(F)(F)F)cc3CNC(=O)[C@H]2C1)Nc1cn[nH]c(=O)c1C(F)(F)F [Compound 79, (R)-9-(3-((S)-2-((6-oxo-5-(trifluoromethyl)-1,6-dihydropyridazin-4-yl)amino)propoxy)propionyl)-3-(trifluoromethyl)-5,6,8,9, 10, 11-hexahydropyrazino[1,2-a]pyrido[3,2-f][1, 4]diazepin-7(7aH)-one]	500 to 5000 nM	< 10 nM			
C[C@@H](COCCC(=O)N1CCN(c2ncc(C(F)(F)F)cn2)CC1)Nc1cn[nH]c(=O)c1C(F)(F)F [RBN-2397]				potent anti-tumor growth effect increasing in a dose-dependent manner	induces tumor-specific adaptive immune memory
